Reference: patent US11365185B2, “Lysophosphatidic acid receptor 1 (LPAR1) inhibitor compounds” (Eli Lilly and Company, priority 2017, dated 2022)
Structures can show the parent of a compound that is named as a salt.

How the values were obtained:
human LPAR3 = human LPAR3 (Homo sapiens (Human), UniProt Q9UBY5); assay: LPAR3 Calcium Flux Assay; format: cell-based; details: U2OS cells overexpressing human LPAR3, LPA-stimulated calcium, FLIPR
Description: LPAR3 Calcium Flux Assays
(§1) A cDNA encoding the human LPAR3 receptor is synthesized and cloned into pDNA3 expression plasmid. The plasmid is transfected in U2OS cells using Lipofectamine 2000 (Invitrogen Corp., USA). Clones stably expressing human LPAR3 are selected using neomycin and identified as cells that show Ca-influx in response to LPA.
U2OS cells overexpressing human LPAR3 are seeded at 20,000-40,000 cells per well in a 96-well poly-D-lysine coated plate one day before the assay. Prior to the assay, the cells are washed once with assay buffer (HBSS containing 20 mM HEPES and 0.2% BSA) and then incubated in 50 μl of assay buffer for 60 minutes. Then 50 μl of a calcium indicator dye (Fluo-4 NW, Molecular Probes) are added to each well and incubation is continued for 30 minutes at 37° C. and then 30 minutes at room temperature. 50 μl of test compounds in 4% DMSO are added to the cells and incubation continued at room temperature for 40 minutes. Cells are stimulated by the addition of 50 μl of 128 nM LPA and intracellular calcium is measured using the FLIPR TETRA (Molecular Devices). IC50 values are determined using “Genedata Screener” analysis tool.

[1] = test system: Human hepatic stellate cell line LX-2; assay: Calcium Influx of Human Hepatic Stellate Cells (LX-2); format: cell-based; details: LX-2 cells, LPA-stimulated calcium influx
Description: Calcium Influx of Human Hepatic Stellate Cells (LX-2)
Human hepatic stellate cell line LX-2 is purchased from EMD Millpore. LX-2 cells are seeded at 20,000-40,000 cells per well in a 96-well poly-D-lysine coated plate one day before the assay. Prior to the assay, the cells are washed once with assay buffer (HBSS containing 20 mM HEPES and 0.2% BSA) and then incubated in 50 μl of assay buffer for 60 minutes. Then 50 μl of a calcium indicator dye (Fluo-4 NW, Molecular Probes) are added to each well and incubation is continued for 30 minutes at 37° C. and then 30 minutes at room temperature. 50 μl of test compounds in 4% DMSO are added to the cells and incubation is continued at room temperature for 40 minutes. Cells are stimulated by the addition of 50 μl of 128 nM LPA and intracellular calcium is measured using the FLIPR TETRA (Molecular Devices). IC50 values are determined using “Genedata Screener” analysis tool.

LPAR1 [2] = biological target: T1, LPAR1 (Homo sapiens (Human), UniProt Q92633); assay: LPAR1 Cytokine Release Assay (IL-6, MG63 cells); format: cell-based; details: LPA-stimulated IL-6 levels, 24 hours, ELISA
Description: LPAR1 Cytokine Release Assay
Human MG63 cells are seeded at 20,000 per well in 96-well plates and incubated in MEM medium. One day later, the cell culture medium is removed and 60 μl of test compounds are added to each well. 30 minutes later, 60 μl of LPA (10 μM) are added to each well. 24 hours later, 50 μl of supernatant from each well are taken and IL-6 levels are measure by using ELISA kit (R&D Systems, Cat. No. D6050). IC50 values are determined using “Genedata Screener” analysis tool.
Target sequence in this assay (Q92633 whole entry): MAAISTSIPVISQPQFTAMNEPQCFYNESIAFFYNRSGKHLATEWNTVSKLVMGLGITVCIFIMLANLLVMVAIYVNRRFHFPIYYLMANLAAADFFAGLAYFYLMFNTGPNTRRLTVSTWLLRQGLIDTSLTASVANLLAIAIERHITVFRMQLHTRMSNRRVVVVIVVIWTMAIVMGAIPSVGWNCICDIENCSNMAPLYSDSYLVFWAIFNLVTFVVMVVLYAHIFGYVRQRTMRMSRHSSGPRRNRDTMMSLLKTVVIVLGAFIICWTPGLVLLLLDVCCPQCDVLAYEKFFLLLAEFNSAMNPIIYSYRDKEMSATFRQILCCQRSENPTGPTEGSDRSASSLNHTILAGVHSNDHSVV

LPAR1 [3] = biological target: T1, LPAR1; assay: LPAR1 Calcium Flux Assay; format: cell-based; details: U937 cells overexpressing human LPAR1, LPA-stimulated calcium, FLIPR
Description: LPAR1 Calcium Flux Assays
as §1, with “LPAR1” for “LPAR3”, “U937” for “U2OS”, “puromycin” for “neomycin”
Target sequence in this assay (Q92633 whole entry): as above
U937 cells overexpressing human LPAR1 are seeded at 100,000 cells per well in a 96-well fibronectin (10 ug/ml) coated plate in 60 μl of assay buffer (HBSS containing 20 mM HEPES and 0.2% BSA) and then incubated for 60 minutes. Then 50 μl of a calcium indicator dye (Fluo-4 NW, Molecular Probes) are added to each well and incubation continued for 30 minutes at 37° C. and then 30 minutes at room temperature. 50 μl of test compounds in 4% DMSO are added to the cells and incubation continued at room temperature for 40 minutes. Cells are the stimulated by the addition of 50 μl of 128 nM LPA and intracellular calcium is measured using the FLIPR TETRA (Molecular Devices). IC50 values are determined using “Genedata Screener” analysis tool.

LPAR1 [4] = biological target: T1, LPAR1; assay: LPAR1 Membrane Binding Assay; details: membrane containing LPAR1, radio labeled ligand, SPA
Description: LPAR1 Membrane Binding Assay
The ability of a compound to inhibit binding of a ligand (1-(4′-(4-(((benzyloxy)carbonyl)amino)-3-methylisoxazol-5-yl)-[1,1′-biphenyl]-4-yl)cyclopropane-1-carboxylic acid) to LPAR1 is assessed via a membrane binding assay. Membrane containing LPAR1 was purchased from Cerep (Cat. No. 290312RB). Prior to the assay, membrane is thawed and homogenized for 15 seconds. 50 μl of test compounds and 50 μl of radio labeled ligand are added to the 96-well plates and then 50 of μl membrane (50-400 ug/ml) are added. Next, 50 μl of SPA PVT WGA beads are added (1-5 mg/ml) and the plates are sealed and incubated at room temperate for 5 minutes. Radio activity is measured by Beta Counter and IC50 values are determined using “Genedata Screener” analysis tool.
Target sequence in this assay (Q92633 whole entry, species assumed): as the sequence (Q92633 whole entry) above

[5] = Rodent Pharmacokinetics - Rat PK; format: in vivo, male Sprague-Dawley rats; details: male, Sprague-Dawley, plasma
Description: (§2) The pharmacokinetics of compounds are determined in male Sprague-Dawley rats or C57 mice. The rats are administered a single 1 mg/kg intravenous (IV) and 10 mg/kg oral gavage (PO) dose. The vehicles are 20% Captisol w/v in 25 mM NaPO4 buffer, pH8 and 1% hydroxyethylcellulose/0.25% polysorbate 80 and 0.05% antifoam 1510-US in distilled water for the intravenous and oral dose, respectively. Blood samples are collected at predose (PO only), 0.08 (IV only), 0.25, 0.5, 1, 2, 4, 8, 12 and 24 h after initiation of compound administration. Blood samples are centrifuged to obtain plasma. The plasma samples are analyzed by LC-MS/MS to determine compound concentrations.

Male C57BL/6J mice = assay: Mouse Intravenous LPA-Induced Histamine and Eicosanoids Release; format: in vivo; details: 10 mg/kg orally 2 hours before intravenous LPA; plasma
Description: Mouse Intravenous LPA-Induced Histamine and Eicosanoids Release
A mouse intravenous LPA-induced histamine and eicosanoids release model is utilized to determine the in vivo potency of the compounds of the present invention. Male C57BL/6J mice weighing 20-25 grams are given free access to standard mouse chow and water. LPA is dissolved in 0.1% fatty acid-free bovine serum albumin to generate solution at 2 mg/mL. Test compounds are formulated in 0.5% methyl cellulose plus 0.25% Tween 80 to generate required concentrations one day before the experiment and stored in a refrigerator until use. Animals are dosed orally with test compounds at 10 ml/kg 2 hours before the intravenous LPA dosing (300 ug per mouse) with 30 gauge needles through tail vain. Two hours after LPA dosing the animals are euthanized by CO2 suffocate. Blood will be collected by cardiac puncture. Blood samples are kept on ice for more than 5 minutes and centrifuged at 4000 rpm for 10 minutes at 4° C. to generate supernatant plasma. The plasma histamine, methylimidazol acetic acid and eicosanoids levels are measured by LC/MS.

[6] = Rodent Pharmacokinetics - Mouse PK; format: in vivo, C57 mice; details: C57, plasma; for AUC / bioavailability: 10 mg/kg; for AUC: PO; for clearance / Vd: intravenous; for Vd: read-out: Vdss; for bioavailability: oral
Description: as §2

human LPAR3, sequence (Q9UBY5 whole entry): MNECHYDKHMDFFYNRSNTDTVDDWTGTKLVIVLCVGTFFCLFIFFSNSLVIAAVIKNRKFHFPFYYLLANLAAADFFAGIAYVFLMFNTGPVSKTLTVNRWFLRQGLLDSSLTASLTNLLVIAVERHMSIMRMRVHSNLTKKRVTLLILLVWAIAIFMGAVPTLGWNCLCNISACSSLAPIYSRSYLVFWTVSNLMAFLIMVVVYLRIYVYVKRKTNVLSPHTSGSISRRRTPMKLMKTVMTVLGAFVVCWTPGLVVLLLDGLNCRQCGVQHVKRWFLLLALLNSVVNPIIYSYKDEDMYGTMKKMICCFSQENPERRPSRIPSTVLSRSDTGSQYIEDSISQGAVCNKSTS

Row | SMILES | IC50 (human LPAR3) [nM] | IC50 [1] [nM] | IC50 (LPAR1 [2]) [nM] | IC50 (LPAR1 [3]) [nM] | Ki (LPAR1 [4]) [nM] | AUC ([5]; 10 mg/kg, PO) [µM·h] | clearance ([5]; intravenous, 1 mg/kg) [mL/min/kg] | Vd ([5]; intravenous, 1 mg/kg, read-out: Vdss) [L/kg] | bioavailability ([5]; oral, 10 mg/kg) [%] | % of inhibition, 9,10-cis epoxide of linoleic acid (Male C57BL/6J mice) [%] | % of inhibition, 12-hydroxyeicosatetraenoic acid (Male C57BL/6J mice) [%] | % of inhibition, methylimidazoleacetic acid (Male C57BL/6J mice) [%] | AUC [6] [µM·h] | clearance [6] [mL/min/kg] | Vd [6] [L/kg] | bioavailability [6] [%]
1 | CC(C)Cc1cncc(Nc2c(-c3ccc(-c4ccc(C5(C(=O)O)CC5)cc4)cc3)cnn2C)n1 [Example 17, 1-[4-[4-[5-[(6-isobutylpyrazin-2-yl)amino]-1-methyl-pyrazol-4-yl]phenyl]phenyl]cyclopropanecarboxylic Acid] | 1830 | 23.1 | 5.81 | 54.7 |  |  |  |  |  |  |  |  |  |  |  | 
2 | CC(C)c1cncc(Nc2c(-c3ncc(-c4ccc(C5(C(=O)O)CC5)cc4)cn3)cnn2C)n1 [Example 18, 1-[4-[2-[5-[(6-isopropylpyrazin-2-yl)amino]-1-methyl-pyrazol-4-yl]pyrimidin-5-yl]phenyl]cyclopropanecarboxylic acid] | 2360 | 7.94 | 6.67 | 24 | 24.5 |  |  |  |  |  |  |  |  |  |  | 
3 | CC(C)Oc1cncc(Nc2c(-c3ccc(-c4ccc(C5(C(=O)O)CC5)cc4)cn3)cnn2C)n1.Cl [Example 20, 1-[4-[6-[5-[(6-isopropoxypyrazin-2-yl)amino]-1-methyl-pyrazol-4-yl]-3-pyridyl]phenyl]cyclopropanecarboxylic Acid; Hydrochloride] | 341 | 12 | 3.95 | 29.3 | 12.7 | 70.9 | 2.94 | 0.721 | 57.5 | 83.4 ± 6.4 | 68.8 ± 6.0 | 103.5 ± 0.6 |  |  |  | 
4 | Cn1ncc(-c2ccc(-c3ccc(C4(C(=O)O)CC4)cc3)cn2)c1Nc1cncc(C(F)(F)F)n1 [Example 21, 1-[4-[6-[1-methyl-5-[[6-(trifluoromethyl)pyrazin-2-yl]amino]pyrazol-4-yl]-3-pyridyl]phenyl]cyclopropanecarboxylic Acid] | 1610 | 14.1 | 8.81 | 36.3 | 27.6 |  |  |  |  |  |  |  | 16.3 | 4.99 | 1.46 | 24.8
5 | Cc1cc(C2(C(=O)O)CC2)ccc1-c1ccc(-c2cnn(C)c2Nc2cncc(C(C)C)n2)nc1 [Example 22, 1-[4-[6-[5-[(6-isopropylpyrazin-2-yl)amino]-1-methyl-pyrazol-4-yl]-3-pyridyl]-3-methyl-phenyl]cyclopropanecarboxylic Acid; Hydrochloride] | 1170 | 10.4 | 11.2 | 30.9 |  |  |  |  |  |  |  |  |  |  |  | 
6 | CC(C)c1cncc(Nc2c(-c3ccc(-c4ccc(C5(C(=O)O)CC5)nc4)cn3)cnn2C)n1 [Example 23, Ammonia; 1-[5-[6-[5-[(6-isopropylpyrazin-2-yl)amino]-1-methyl-pyrazol-4-yl]-3-pyridyl]-2-pyridyl]cyclopropanecarboxylic Acid] | > 10000 | 21.5 | 183 | 111 |  |  |  |  |  |  |  |  |  |  |  | 
7 | CC(C)c1cncc(Nc2c(-c3ccc(-c4ccc(C5(C(=O)O)CC5)cn4)cn3)cnn2C)n1 [Example 24, 1-[6-[6-[5-[(6-isopropylpyrazin-2-yl)amino]-1-methyl-pyrazol-4-yl]-3-pyridyl]-3-pyridyl]cyclopropanecarboxylic Acid; Dihydrochloride] | 2760 | 15.3 |  | 48 | 46.2 |  |  |  |  |  |  |  |  |  |  | 
8 | Cn1ncc(-c2ccc(-c3ccc(C4(C(=O)O)CC4)cc3)cc2)c1Nc1cncc(C2CC2)n1 [Example 25, Ammonium 1-[4-[4-[5-[(6-cyclopropylpyrazin-2-yl)amino]-1-methyl-pyrazol-4-yl]phenyl]phenyl]cyclopropanecarboxylate] | > 10000 | 24.2 |  | 52.9 | 30.8 |  |  |  |  |  |  |  |  |  |  | 
9 | CC(C)c1cncc(Nc2c(-c3ccc(-c4ccc(C5(C(=O)O)CC5)cc4)cc3)cnn2C)n1 [Example 26, 1-[4-[4-[5-[(6-isopropylpyrazin-2-yl)amino]-1-methyl-pyrazol-4-yl]phenyl]phenyl]cyclopropanecarboxylic Acid] | > 10000 | 13.1 | 4.79 | 23.6 | 18.8 |  |  |  |  |  |  |  | 9.06 | 2 | 2 | 30
